Assays:
[1] = target: Cyclin-dependent kinase 2 (Homo sapiens, UniProt P24941); test: Inhibitory activity against CDK2
[2] = target: Glycogen synthase kinase-3 beta (Homo sapiens, UniProt P49841); test: Inhibitory activity against GSK3-beta
Sequence of Glycogen synthase kinase-3 beta (P49841 whole entry): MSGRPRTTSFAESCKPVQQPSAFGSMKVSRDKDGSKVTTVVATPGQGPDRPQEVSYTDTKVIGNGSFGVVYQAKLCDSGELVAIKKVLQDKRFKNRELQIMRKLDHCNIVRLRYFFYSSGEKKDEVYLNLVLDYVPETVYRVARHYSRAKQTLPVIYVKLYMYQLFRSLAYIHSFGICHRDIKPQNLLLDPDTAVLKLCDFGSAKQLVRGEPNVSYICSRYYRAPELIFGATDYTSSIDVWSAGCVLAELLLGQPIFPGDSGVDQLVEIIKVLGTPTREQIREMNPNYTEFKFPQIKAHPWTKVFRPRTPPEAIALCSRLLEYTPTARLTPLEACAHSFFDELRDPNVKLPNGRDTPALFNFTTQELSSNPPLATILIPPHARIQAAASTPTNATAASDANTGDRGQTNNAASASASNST

SMILES	IC50 [1] [nM]	IC50 [2] [nM]
NC1=NONC1N1N=NC(c2nnc(-c3ccncc3)[nH]2)C1CN1CCCCC1 (centres undefined)	> 250000	280
NC1=NONC1N1N=NC(C(=O)N/N=C/c2ccncc2)C1CN1CCCCC1 (centres undefined)	96000	100

— ChEMBL document CHEMBL1141936, “Structural basis for the GSK-3beta binding affinity and selectivity against CDK-2 of 1-(4-aminofurazan-3yl)-5-dialkylaminomethyl-1H-[1,2,3] triazole-4-carboxylic acid derivatives” (Bioorg Med Chem Lett, 2005)
